This passage reports DC50 results from patent publication US20240383874A1, “BENZENE RING DERIVATIVE, AND COMPOSITION AND PHARMACEUTICAL USE THEREOF” (Xizang Haisco Pharmaceutical Co., Ltd., priority 2020, published 2024).

This assay has as its target T1, AR splice variant 7 (AR-V7) (Homo sapiens, UniProt P10275).
T1 construct: host or cells: 22RV1 prostate cancer cells
T1 sequence (P10275 1-644 isoform P10275-3): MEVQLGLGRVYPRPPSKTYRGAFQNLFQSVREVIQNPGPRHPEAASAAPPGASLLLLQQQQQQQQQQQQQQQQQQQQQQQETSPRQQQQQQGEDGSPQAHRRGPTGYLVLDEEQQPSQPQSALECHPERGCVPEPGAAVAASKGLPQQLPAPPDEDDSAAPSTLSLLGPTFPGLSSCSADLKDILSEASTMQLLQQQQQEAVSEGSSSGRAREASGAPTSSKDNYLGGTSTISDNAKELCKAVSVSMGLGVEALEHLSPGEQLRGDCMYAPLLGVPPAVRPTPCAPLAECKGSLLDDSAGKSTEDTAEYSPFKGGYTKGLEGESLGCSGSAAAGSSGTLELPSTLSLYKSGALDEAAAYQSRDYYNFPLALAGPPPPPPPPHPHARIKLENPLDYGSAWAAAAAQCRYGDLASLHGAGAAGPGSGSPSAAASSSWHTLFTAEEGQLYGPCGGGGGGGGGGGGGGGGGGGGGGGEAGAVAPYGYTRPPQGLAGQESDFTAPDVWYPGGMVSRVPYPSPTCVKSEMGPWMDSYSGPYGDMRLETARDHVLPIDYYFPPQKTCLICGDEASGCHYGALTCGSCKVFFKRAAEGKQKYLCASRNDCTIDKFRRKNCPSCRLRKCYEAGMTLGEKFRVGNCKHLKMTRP
The assay is described as follows: Degradation experiment on AR splice variant 7 (AR-V7) in 22RV1 cells. The format is cell-based. Particulars: 24 h, degradation rate 50% relative to vehicle control. On the procedure: Prostate cancer cells 22RV1 were purchased from ATCC, the cell medium was 1640+10% FBS, and the cells were cultured in an incubator at 37° C. under 5% CO2. On day 1, the cells in an exponential phase were collected. With a 1% css-FBS phenol red-free medium, the cell suspension was adjusted to a corresponding concentration and plated into a 6-well plate at 1 mL/well and 300000 cells/well. The next day, a 1% css-FBS phenol-free medium containing the compound to be tested was added, a 1% css-FBS phenol-free medium containing 0.2% DMSO was added to one well as DMSO vehicle control, and the 6-well plate was cultured in an incubator at 37° C. under 5% CO2. After 24 h, the cells were digested with pancreatin and collected into a 1.5 mL centrifuge tube. […] The supernatant protein samples were collected, and protein quantification was performed by a BCA method. AR-V7 was detected using fully automatic protein expression quantitative analysis, which involved diluting the protein to be tested to 2 mg/mL. […] The prepared reagents were successively added to an assay plate according to instructions of the kit and detected on an instrument. Western blot band processing was performed using “Compass for SW”, a fully automatic protein expression quantitative analysis software, in which western blot bands were automatically simulated based on signal values. […]

Compound `COc1c(Cl)cc(C(C)(C)c2ccc(OCc3ccnc(N4CCC(CN5CCC(C6CCN(c7ccc(C8CCC(=O)NC8=O)cc7)CC6)CC5)CC4)n3)cc2)cc1C#N` (stereo not shown) [Compound 119, 3-chloro-5-(2-(4-((2-(4-((1′-(4-(2,6-dioxopiperidin-3-yl)phenyl)-[4,4′-bipiperidin]-1-yl)methyl)piperidin-1-yl)pyrimidin-4-yl)methoxy)phenyl)propan-2-yl)-2-methoxybenzonitrile] had a DC50 of 3.71 µM.

Usually DC50 stands for the concentration at which degradation of the target reaches its halfway point. The low end stands for a more potent degrader, the high end for a less potent degrader.
